Test results as given in ChEMBL document CHEMBL1151436, “In vitro evaluation of the activities of telavancin, cefazolin, and vancomycin against methicillin-susceptible and methicillin-resistant Staphylococcus aureus in peritoneal dialysate” (Antimicrob Agents Chemother, 2007).
≈ marks a conversion by molar mass, not a printed value. Calls of active or inactive are those of the source. No cut-off for these calls is given here.

What was measured:
Staphylococcus aureus [1] = experiment: Antibacterial activity against methicillin-resistant Staphylococcus aureus ATCC 33592 in peritoneal dialysis fluid administered as bolus dose 2 hrs after infection measured after 24 hrs by broth dilution method; type: functional
Staphylococcus aureus [2] = experiment: Antibacterial activity against methicillin-susceptible Staphylococcus aureus ATCC 29213 in peritoneal dialysis fluid administered as bolus dose 2 hrs after infection measured after 24 hrs by broth dilution method; type: functional
Staphylococcus aureus [3] = experiment: Antibacterial activity against methicillin-susceptible Staphylococcus aureus ATCC 29213 in peritoneal dialysis fluid at 10 ug/mL administered as bolus dose 2 hrs after infection measured after 24 hrs by time-kill study; type: functional, organism-based
Staphylococcus aureus [4] = experiment: Antibacterial activity against methicillin-resistant Staphylococcus aureus ATCC 33592 in peritoneal dialysis fluid at 50 ug/mL administered as bolus dose 2 hrs after infection measured after 24 hrs by time-kill study; type: functional, organism-based
[5] = Protein binding in mouse plasma at 0.1 to 100 ug/mL by equilibrium dialysis; type: ADME, cell-free; conditions: read-out: PB (converted)
Staphylococcus aureus [6] = experiment: Antibacterial activity against methicillin-susceptible Staphylococcus aureus ATCC 29213 in peritoneal dialysis fluid at 50 ug/mL administered as bolus dose 2 hrs after infection measured after 24 hrs by time-kill study; type: functional, organism-based
Staphylococcus aureus [7] = experiment: Antibacterial activity against methicillin-resistant Staphylococcus aureus ATCC 33592 in peritoneal dialysis fluid at 10 ug/mL administered as bolus dose 2 hrs after infection measured after 24 hrs by time-kill study; type: functional, organism-based

Row | SMILES | MIC (Staphylococcus aureus [1]) [µg/mL] | MIC (Staphylococcus aureus [2]) [µg/mL] | Activity (Staphylococcus aureus [3]) | Activity (Staphylococcus aureus [4]) | fraction unbound [5] | Activity (Staphylococcus aureus [6]) | Activity (Staphylococcus aureus [7])
1 | Cc1nnc(SCC2=C(C(=O)O)N3C(=O)[C@@H](NC(=O)Cn4cnnn4)[C@H]3SC2)s1 [CEFAZOLIN] | > 16 | 0.5 (≈ 1.1 µM) | – | – | – | – | –
2 | CCCCCCCCCCNCCN[C@@]1(C)C[C@H](O[C@H]2[C@H](Oc3c4cc5cc3Oc3ccc(cc3Cl)[C@@H](O)[C@@H](NC(=O)[C@@H](CC(C)C)NC)C(=O)N[C@@H](CC(N)=O)C(=O)N[C@H]5C(=O)N[C@H]3C(=O)N[C@H](C(=O)N[C@H](C(=O)O)c5cc(O)c(CNCP(=O)(O)O)c(O)c5-c5cc3ccc5O)[C@H](O)c3ccc(c(Cl)c3)O4)O[C@H](CO)[C@@H](O)[C@@H]2O)O[C@@H](C)[C@H]1O [TELAVANCIN] | 0.125 (≈ 0.0712 µM) | 0.25 (≈ 0.142 µM) | Active | Active | 0.05 | Active | Active
